Data set [1] is described as follows: Acute toxicity, intravenous injection (LD50). In kind it is in vivo. The conditions noted are these: mouse, in vivo, iv, ddy male mice, sodium salt, mortality over one week. How it is done: Administration route: Intravenous injection
Using ddy male mice (body weight: 25 - 30 g), each test group consisted of 5 mice. A test compound was dissolved in the form of a sodium salt in a physiological saline or in a 5% glucose aqueous solution, and intravenously injected in an amount of 0.1 ml/10 g body weight. After the injection, the mortality rate was obtained over one week, and the median lethal dose LD50 (mg/kg) was determined.

The subject of data set [2] is experimental acute pancreatitis model. In words: Effects against acute pancreatitis (Test Example 8, closed duodenal loop method, lesion scores). In kind it is in vivo, Crj-CD male rats. Particulars: sodium salt, 6 hours after ventrotomy; for inhibition in vivo at 10 mg/kg: Rattus norvegicus, 10 mg/kg single intravenous injection. Here is the method:
Using Crj-CD male rats, each test group consisted of 3 rats. An experimental acute pancreatitis model was prepared by a closed duodenal loop method under anethesia with halothane (manufactured by Hoechst Japan) and nitrous oxide (manufactured by Sumitomo Seika K.K.) applied by a general inhalation anesthesia machine (Model EM2 and halothane evaporator F-Model). Each compound (subjected to the test in the form of a sodium salt) was continuously intravenously injected into the tail vein in an amount of 0.4 ml/100 g to 0.6 ml/100 g at a rate of 0.05 ml per minute by a pump (Technicon AA II Proportioning Pump III, manufactured by Technicon Instruments Corporation) or rapidly intravenously injected. No injection was made to a control group. Gross pathological examination was conducted upon expiration of 6 hours after the ventrotomy in the case of the group to which the compound was administered. With respect to each of four lesions among pancreatic lesions i.e. petechia, ecchymosis, pancreatic necrosis and abdominal fatty necrosis, the grade and the distribution of lesions were scored with five grades of 0, 0.5, 1, 2 and 3 (severe lesions are 3). The sum of all lesions was designated as scores of pancreatitis lesions, and the sum of the score of petechia and the score of ecchymosis only was designated as scores of hemorrhagic lesions. The pancreatitis inhibition rate (%) and the hemorrhage inhibition rate (%) were obtained by the following formulas, and the results are shown in Table 13. Pancreatitis inhibition rate (%) = (l -(H)/(G)) x 100 [formula] • H: Scores of pancreatitis lesions of the group to which a test compound was administered. • G: Scores of pancreatitis lesions of the control group. Hemorrhage inhibition rate (%) = (l -(J)/(I)) x 100 [formula] • J: Scores of hemorrhagic lesions of the group to which a test compound was administered. • I: Scores of hemorrhagic lesions of the control group.

In data set [3] the target is T1, Porcine pancreatic phospholipase A2 (Sus scrofa, UniProt P00592).
T1 construct: purchased Boehringer Mannheim·Yamanouchi K.K. 161454·122416
As to the kind of experiment: Phospholipase A2 inhibitory activity, method B (L-α-dipalmitoylphosphatidylcholine substrate). In kind it is biochemical. The conditions noted are these: 1,000 ppm, 37°C for 30 minutes, read-out: % inhibition of PLA2 (1,000 ppm). Here is the method:
To a solution prepared by dissolving 9.2 mg of L-α-dipalmitoylphosphatidylcholine (manufactured by Nichiyu Liposome K.K.) in 0.5 ml of chloroform, a solution prepared by dissolving 32 mg of sodium cholate (manufactured by Wako Pure Chemical Industries, Ltd.) in 0.5 ml of methanol, was added, followed by mixing. The solvent of the mixture was removed under a nitrogen stream, and then 2.5 ml of a 250 mM sodium chloride solution [prepared by dissolving sodium chloride in a 100 mM Tris-HCl buffer solution {tris(hydroxymethyl)aminomethane (manufactured by Nacalai Tesque K.K.) was adjusted to pH8.0 with hydrochloric acid}] was added thereto, and the mixture was dissolved under stirring to obtain a substrate.
(§1) Porcine pancreatic phospholipase A2 [(161454·122416) manufactured by Boehringer Mannheim·Yamanouchi K.K.] was used.
To a 96 well microtitration plate, 20 µl of a solution containing calcium chloride, bovine serum alubmin (manufactured by Sigma Chemical, Co.) and a Tris-HCl buffer solution (pH8.0) at concentrations of 25 mM, 4.5 mg/ml and 100 mM, respectively, 5 µl of a solution prepared by dissolving 10 mg of a test compound in 500 µl of diemthylsulfoxide, followed by an addition of 500 µl of a 200 mM Tris-HCl buffer solution, 5 µl of an enzyme solution (10 µg/ml) [prepared by dissolving the enzyme in a bovine serum alubmin solution (prepared by dissolving bovine serum alubmin in a 100 mM Tris-HCl buffer solution at a concentration of 1 mg/ml)] and 20 µl of the substrate, were added and reacted at 37°C for 30 minutes. After termination of the reaction, the released free fatty acid was quantitatively analyzed in accordance with the ACS-ACOD (acyl CoA synthetase-acyl CoA oxidase) method [a kit of NEFA C test wako (manufactured by Wako Pure Chemical Industries, Ltd.) was used]. The quantitative analysis was made by means of Microplate ELISA Reader (Model 2550EIA Reader, manufactured by Bio-Rad Laboratories) at a wavelength of 540 nm. Separately, such experiments as mentioned above, were carried out at various concentrations (1 µg/ml, 0.75 µg/ml, 0.5 µg/ml and 0.25 µg/ml) of phospholipase A2 without a test compound. Then, the concentration of the free fatty acid versus the concentration of phospholipase A2 was plotted.
(§2) From this standard curve, the apparent concentration of phospholipase A2 in the case with a test compound, was read. Then, the percent inhibition of the enzyme was calculated by the following formula. Percent inhibition (%) = (l -(A)/(B)) x 100 [formula] • A: Apparent enzyme concentration when a test compound is added. • B: True enzyme concentration when a test compound is added.

The target in data set [4] is T1, Porcine pancreatic phospholipase A2. As to the kind of experiment: Phospholipase A2 inhibitory activity, method A (egg yolk lecithin substrate). In kind it is biochemical. Particulars: 1,000 ppm, 37°C for 30 minutes, read-out: % inhibition of PLA2 (1,000 ppm). How it is done: To 10 mg of egg yolk lecithin (manufactured by Wako Pure Chemical Industries Ltd.), 1 ml of glycerine, 2 ml of a 50 mM Tris-HCl buffer solution (pH7.5) [Tris(hydroxymethyl)aminomethane (manufactured by Nacalai Tesque K.K.) was adjusted to pH7.5 with hydrochloric acid], 0.5 ml of a 150 mM calcium chloride solution (calcium chloride was dissolved in a 50 mM Tris-HCl buffer solution) and 0.5 ml of a 0.05% Triton-X100 (manufactured by Nacalai Tesque K.K.) solution (Triton-X100 was dissolved in a 50 mM Tris-HCl buffer solution), were added and dispersed by an agate mortar or dispersed by an ultrasonic processor (Model W-225, manufactured by Heat System-Ultrasonics, Inc.) for 5 minutes (30W) to obtain a substrate.
as §1
To a 96 well microtitration plate (flat bottom, manufactured by Sumitomo Bakelite Medical Co., Ltd.), 40 µl of the substrate, 5 µl of a solution prepared by dissolving 10 mg of a test compound in 500 µl of dimethylsulfoxide, followed by an addition of 500 µl of a 50 mM Tris-HCl buffer solution, and 5 µl of an enzyme solution of 20 ng/ml (prepared by diluting the enzyme in a 50 mM Tris-HCl buffer solution), were added and reacted at 37°C for 30 minutes. After termination of the reaction, the released free fatty acid was quantitatively analyzed in accordance with the ACS-ACOD (acyl CoA synthetase-acyl CoA oxidase) method [a kit of NEFA C test wako (manufactured by Wako Pure Chemical Industries, Ltd.) was used]. The quantitative analysis was made by means of Microplate ELISA Reader (Model 2550EIA Reader, manufactured by Bio-Rad Laboratories) at a wavelength of 540 nm. Separately, such experiments as mentioned above, were carried out at various concentrations (2 µg/ml, 1 µg/ml and 0.5 µg/ml) of phospholipase A2 without a test compound. Then, the concentration of the free fatty acid versus the concentration of phospholipase A2 was plotted.
as §2

The next data set has as its system carrageenin edema. As to the kind of experiment: Inhibitory activity on carrageenin edema. The conditions noted are these: rat; dose 50 mg/kg orally; paw swelling volume three hours after carrageenin. In kind it is in vivo, Wistar male rats. Here is the method:
Using Wistar male rats (body weight: about 100 g), each test group consisted of 5 rats. A test compound was mixed with Tween 80 [polyoxyethylenesorbitan monooleate (manufactured by Nacalai Tesque K.K.)], and distilled water was added thereto to obtain a 2% Tween 80 suspension, or it was dissolved in the form of a salt in water to obtain an aqueous solution. Either the suspension or the aqueous solution was orally administered in an amount of 200 mg/kg, 100 mg/kg, 50 mg/kg or 25 mg/kg. One hour later, 0.1 ml of a 1% λ-carrageenin solution dissolved in a physiological saline was injected subcutaneously to the right hind paw of each rat to cause inflamation. Three hours later, the paw volume was measured by a paw volume measuring device (manufactured by Ugobasiee K.K.). A swelling volume was obtained from the difference from the value before the inflammation. Inhibition rate (%) = (l -(F)/(E)) x 100 [formula] • F: Average swelling volume in the group to which a test compound was administered. • E: Average swelling volume in the control group.
In general terms: In the carrageenan paw model, swelling and tenderness develop within hours.

[5] abbreviates: read-out: Inhibition rate of hemorrhagic lesions (%).
[6] abbreviates: read-out: Inhibition rate of pancreatitis lesions (%).

The values that follow come from patent publication EP0465913B1, “Diaminotrifluoromethylpyrimidine derivatives, process for their production and phospholipase A2 inhibitor containing them” (ISHIHARA SANGYO KAISHA, LTD., priority 1990, dated 1992).

SMILES strings stand for the structures. Like-named read-outs stand apart in the source and are kept apart here.

T1 sequence (P00592 23-146): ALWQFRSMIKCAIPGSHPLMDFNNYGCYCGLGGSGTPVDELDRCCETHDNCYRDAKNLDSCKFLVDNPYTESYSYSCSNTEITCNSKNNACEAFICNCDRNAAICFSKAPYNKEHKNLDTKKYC

As for `CS(=O)(=O)Nc1ncc(C(F)(F)F)cc1NC(=O)Cc1cccs1` [compound 61], the LD50 at 168 h in data set [1] is greater than 80 mg/kg. For the same molecule, the inhibition in vivo at 10 mg/kg in data set [2] (setting [5]) was 79%; in data set [2] (setting [6]) it was 64%. Further, the inhibition at 1000 ppm in data set [3] was 36%.
With `CCS(=O)(=O)Nc1ncc(C(F)(F)F)cc1NC(=O)c1ccccc1` [compound 48], the inhibition at 1000 ppm in data set [4] was determined as 48%.
Consider `CS(=O)(=O)Nc1ncc(C(F)(F)F)cc1NC(=O)C1CC=CCC1` (centres unmarked) [compound 68], for which the LD50 at 168 h in data set [1] is greater than 80 mg/kg. Also, the inhibition in vivo at 10 mg/kg was determined as 74% in data set [2] (setting [5]) and 77% in data set [2] (setting [6]). Besides, the inhibition at 1000 ppm in data set [3] turned out to be 81%.
As for `CCOC(=O)Nc1ncc(C(F)(F)F)cc1NC(=O)OCc1ccccc1` [compound 38], the inhibition at 1000 ppm in data set [4] is 35%.
As to `O=C(Nc1cc(C(F)(F)F)cnc1NC(=O)C(Cl)Cl)C(Cl)Cl` [compound 28], the inhibition at 1000 ppm in data set [4] was 71%. Further, the “Inhibition rate (%)” value in the data set with carrageenin edema is listed as 25%.
With `CS(=O)(=O)NNc1ncc(C(F)(F)F)cc1NC(=O)C(F)(F)C(F)(F)F` [compound 40], the LD50 at 168 h in data set [1] fell in the range of 50 to 100 mg/kg.
As to `O=C(Nc1cc(C(F)(F)F)cnc1NC(=O)C(F)(F)C(F)(F)F)c1ccccc1` [compound 32], the inhibition at 1000 ppm in data set [4] was found to be 50%.
For `CCCCS(=O)(=O)Nc1ncc(C(F)(F)F)cc1NC(=O)C1CCCCC1` [compound 53], the inhibition at 1000 ppm stood at 37% in data set [4] and 100% in data set [3].
On to `O=C(Nc1cc(C(F)(F)F)cnc1NS(=O)(=O)C(F)(F)F)C1CCCCC1` [compound 91], for which the LD50 at 168 h in data set [1] was greater than 80 mg/kg. Further, in data set [3], the inhibition at 1000 ppm stood at 81%. Further, in the data set with carrageenin edema, the “Inhibition rate (%)” value is reported as 23%.
As to `CC(C)S(=O)(=O)Nc1ncc(C(F)(F)F)cc1NC(=O)C(Cl)(Cl)Cl` [compound 50], the inhibition at 1000 ppm in data set [4] amounted to 78%.
The same measure, in the same setting: for `O=C(Nc1ncc(C(F)(F)F)cc1NC(=O)C(Cl)(Cl)Cl)C(F)(F)F` [Compound No. 30, N-(3-trichloroacetylamino-5-trifluoromethyl-2-pyridyl)trifluoroacetamide] the value was 87%.
With `CS(=O)(=O)Nc1ncc(C(F)(F)F)cc1NC(=O)C(F)(F)C(F)(F)C(F)(F)F` [compound 14], the inhibition at 1000 ppm in data set [4] stood at 54%. In addition, the “Inhibition rate of hemorrhagic lesions (%)” value in data set [2] (19 mg/kg continuous intravenous injection) is reported as 52%.
As for `CC(C)S(=O)(=O)Nc1ncc(C(F)(F)F)cc1NC(=O)C(F)(F)C(F)(F)F` [compound 51], in data set [4], the inhibition at 1000 ppm came to 63%.
On the same count and under the same terms, the figure for `O=C(Nc1cc(C(F)(F)F)cnc1NC(=O)C(F)(F)F)C(Cl)Cl` [compound 29] is 47%; for `CCOC(=O)NC(=S)Nc1cc(C(F)(F)F)cnc1NC` [compound 54] it is 37%.
With `CS(=O)(=O)Nc1ncc(C(F)(F)F)cc1NC(=O)CCCCCl` [compound 46], the inhibition at 1000 ppm in data set [4] was 47%. Further, the “Inhibition rate of hemorrhagic lesions (%)” value in data set [2] (46 mg/kg continuous intravenous injection) is reported as 36%. In addition, the “Inhibition rate (%)” value with carrageenin edema was found to be 30%.
Take `CCCCS(=O)(=O)Nc1ncc(C(F)(F)F)cc1NC(=O)C(F)(F)C(F)(F)F` [compound 52]: the inhibition at 1000 ppm in data set [4] is 49%.
Turning to `CCOCCC(=O)Nc1cc(C(F)(F)F)cnc1NC(=O)CCOCC` [compound 26], the inhibition at 1000 ppm in data set [4] came to 35%.
As for `COc1ccc(C(=O)Nc2cc(C(F)(F)F)cnc2NS(C)(=O)=O)cc1` [compound 44], the inhibition at 1000 ppm worked out at 43% in data set [4] and 64% in data set [3].
Consider `O=C(Nc1ncc(C(F)(F)F)cc1NC(=O)C(F)(F)F)C(Cl)Cl` [compound 27], for which the inhibition at 1000 ppm in data set [4] stood at 62%.
As for `CS(=O)(=O)Nc1ncc(C(F)(F)F)cc1NC(=O)c1cccc(F)c1` [compound 58], the values for the inhibition at 1000 ppm in data set [4] and in data set [3] were 74% and 42%, respectively. The inhibition in vivo at 10 mg/kg in data set [2] (setting [5]) was found to be 70%; in data set [2] (setting [6]) it was 51%.

Broadly, the LD50 is the dose expected to kill half of the subjects tested. One may read the inhibition as how much of the control response was suppressed.
